Read-outs that look alike come from different tables or passages of the source.
Target: T1, VAV1 (Homo sapiens, UniProt P15498+Q96SW2)
T1 construct: A heterozygous VAV1 C-terminal HiBiT knock-in pool was generated at Monte Rosa Therapeutics from a clonal Jurkat cell; endogenous in cells; host or cells: Jurkat clone stably expressing LgBiT, homozygous GSPT1-G575N; heterozygous VAV1-HiBiT knock-in pool
Test: VAV1 degradation activity, VAV1-HiBiT knock-in Jurkat luminescence assay (Example A, Table 1)
Format: cell-based
Details: VAV1-HiBiT knock-in Jurkat cells, luminescence read at 6 and 24 hours; for Dmax: Jurkat
Outline: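 Jurkat cells carrying VAV1-HiBiT knock-in, plated in RPMI/10% FBS with Endurazine live-cell substrate and pre-incubated ~16 h at 37° C. Compound dosed from 10 μM stock; luminescence read 6 and 24 h later. Response normalised to plate negative/positive controls, EC50 from 3-parameter logistic fit (hillslope 1).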

[1] = read-out: VAV1 DC50 (nM), class

CC1(C)CCCC(=O)N1c1ccc(-c2cccc(C3CCC(=O)NC3=O)c2Cl)cc1 (centres unmarked) [Compound 403, 3-(2-chloro-4′-(2,2-dimethyl-6-oxopiperidin-1-yl)-[1,1′-biphenyl]-3-yl)piperidine-2,6-dione]
Dmax (read-out: VAV1 Dmax %): 98.2% | Dmax (read-out: VAV1 Dmax %, class): > 90% | DC50 (read-out: VAV1 DC50): 3.26 nM | DC50 [1]: ≤ 100 nM

O=C1CCC(c2cccc(-c3ccc(CN4C(=O)CCCC45CC5)nc3)c2Cl)C(=O)N1 (centres unmarked) [Compound 404, 3-(2-chloro-3-(6-((5-oxo-4-azaspiro[2.5]octan-4-yl)methyl)pyridin-3-yl)phenyl)piperidine-2,6-dione]
Dmax (read-out: VAV1 Dmax %): 65.5% | Dmax (read-out: VAV1 Dmax %, class): 60 to 90% | DC50 (read-out: VAV1 DC50): 262 nM | DC50 [1]: 100 to 1000 nM

O=C1CCC(c2cccc(-c3ccc(N4C(=O)CC45CCC5)cc3)c2Cl)C(=O)N1 (centres unmarked) [Compound 405, 3-(2-chloro-4′-(2-oxo-1-azaspiro[3.3]-heptan-1-yl)-[1,1′-biphenyl]-3-yl)piperidine-2,6-dione]
Dmax (read-out: VAV1 Dmax %): 76.3% | Dmax (read-out: VAV1 Dmax %, class): 60 to 90% | DC50 (read-out: VAV1 DC50): 383 nM | DC50 [1]: 100 to 1000 nM

CN1Cc2cccc(-c3ccc(-c4cccc(C5CCC(=O)NC5=O)c4Cl)cc3)c2S1(=O)=O (centres unmarked) [Compound 406, 3-(2-chloro-4′-(2-methyl-1,1-dioxido-2,3-dihydrobenzo[d]isothiazol-7-yl)-[1,1′-biphenyl]-3-yl)piperidine-2,6-dione]
Dmax (read-out: VAV1 Dmax %): 82.4% | Dmax (read-out: VAV1 Dmax %, class): 60 to 90% | DC50 (read-out: VAV1 DC50): 25.9 nM | DC50 [1]: ≤ 100 nM

O=C1CCC(c2cccc(-c3ccc(N4C(=O)CCCC45COC5)cc3)c2Cl)C(=O)N1 (centres unmarked) [Compound 407, 3-(2-chloro-4′-(6-oxo-2-oxa-5-azaspiro[3.5]nonan-5-yl)-[1,1′-biphenyl]-3-yl)piperidine-2,6-dione]
Dmax (read-out: VAV1 Dmax %): 95.5% | Dmax (read-out: VAV1 Dmax %, class): > 90% | DC50 (read-out: VAV1 DC50): 6.17 nM | DC50 [1]: ≤ 100 nM

Cn1cnc(Cc2ccc(-c3cccc(C4CCC(=O)NC4=O)c3Cl)cc2)c1 (centres unmarked) [Compound 408, 3-(2-chloro-4′-((1-methyl-1H-imidazol-4-yl)methyl)-[1,1′-biphenyl]-3-yl)piperidine-2,6-dione]
Dmax (read-out: VAV1 Dmax %): 96% | Dmax (read-out: VAV1 Dmax %, class): > 90% | DC50 (read-out: VAV1 DC50): 30.8 nM | DC50 [1]: ≤ 100 nM

CN1CCC[C@H](c2ccc(-c3cccc(C4CCC(=O)NC4=O)c3Cl)cc2)C1=O (stereo partly drawn) [Compound 409, 3-(2-chloro-4′-((R)-1-methyl-2-oxopiperidin-3-yl)-[1,1′-biphenyl]-3-yl)piperidine-2,6-dione]
Dmax (read-out: VAV1 Dmax %): 95.2% | Dmax (read-out: VAV1 Dmax %, class): > 90% | DC50 (read-out: VAV1 DC50): 7.82 nM | DC50 [1]: ≤ 100 nM

CN1CCC[C@@H](c2ccc(-c3cccc(C4CCC(=O)NC4=O)c3Cl)cc2)C1=O (stereo partly drawn) [Compound 410, 3-(2-chloro-4′-((S)-1-methyl-2-oxopiperidin-3-yl)-[1,1′-biphenyl]-3-yl)piperidine-2,6-dione]
Dmax (read-out: VAV1 Dmax %): 92.1% | Dmax (read-out: VAV1 Dmax %, class): > 90% | DC50 (read-out: VAV1 DC50): 17 nM | DC50 [1]: ≤ 100 nM

COCc1ccn(C)c(=O)c1-c1ccc(-c2cccc(C3CCC(=O)NC3=O)c2Cl)cc1 (centres unmarked) [Compound 411, 3-(2-chloro-4′-(4-(methoxymethyl)-1-methyl-2-oxo-1,2-dihydropyridin-3-yl)-[1,1′-biphenyl]-3-yl)piperidine-2,6-dione]
Dmax (read-out: VAV1 Dmax %): 98.2% | Dmax (read-out: VAV1 Dmax %, class): > 90% | DC50 (read-out: VAV1 DC50): 1.99 nM | DC50 [1]: ≤ 100 nM

O=C1CCC(c2cccc(-c3cnc(Cn4ccccc4=O)c(F)c3)c2Cl)C(=O)N1 (centres unmarked) [Compound 412, 3-(2-chloro-3-(5-fluoro-6-((2-oxopyridin-1(2H)-yl)methyl)pyridin-3-yl)phenyl)piperidine-2,6-dione]
Dmax (read-out: VAV1 Dmax %): 67.3% | Dmax (read-out: VAV1 Dmax %, class): 60 to 90% | DC50 (read-out: VAV1 DC50): 418 nM | DC50 [1]: 100 to 1000 nM

CC1(C)CCC(=O)N1c1ccc(-c2cccc(C3CCC(=O)NC3=O)c2Cl)cc1 (centres unmarked) [Compound 413, 3-(2-chloro-4′-(2,2-dimethyl-5-oxopyrrolidin-1-yl)-[1,1′-biphenyl]-3-yl)piperidine-2,6-dione]
Dmax (read-out: VAV1 Dmax %): 97.5% | Dmax (read-out: VAV1 Dmax %, class): > 90% | DC50 (read-out: VAV1 DC50): 4.87 nM | DC50 [1]: ≤ 100 nM

Reference: patent US12257247B2 (Monte Rosa Therapeutics AG, priority 2023, dated 2025)
